For test [1], the target named is T1, CDK4 (Homo sapiens, UniProt P11802).
T1 construct: evaluate the effects of the compounds of the present disclosure on the expression of target proteins in cells; endogenous in cells; host or cells: MDA-MB-231
The experiment in a line: Western blot degradation of CDK4 (MDA-MB-231 Cell). Format: cell-based. Particulars: Table D3. How it is done:
(§1) Conventional Western blot assay was performed to evaluate the effects of the compounds of the present disclosure on the expression of target proteins in cells.
(§2) (1) Cell Seeding and Protein Harvesting: The selected cells were processed according to the cell seeding procedure and protein harvesting procedure in Table III-2. Table III-2 Cell Seeding and Protein Harvesting Procedures
(§3) (2) To the collected supernatant, 5X SDS sample loading buffer was added, followed by denaturation at 95°C for 5 minutes. The denatured samples were then separated by SDS-PAGE electrophoresis on a polyacrylamide gel. Proteins were transferred to a nitrocellulose membrane (0.45 µm NC membrane), blocked with blocking buffer at room temperature for 1 hour, and subjected to antibody incubation and development procedures according to the antibody manufacturer's instructions (Cell Signaling Technology).
(§4) Half-Maximal Degradation Concentration value (the drug concentration required for degrading proteins by 50%, abbreviated as DC50) reads method: comparing the grayscale values of Western blot bands from drug-treated samples with those from blank DMSO-treated controls, and identifying the drug concentration range at which the grayscale value is half that of the DMSO-treated control bands.
(§5) DC50 values can be calculated using ImageJ software to measure grayscale values of Western blot bands from drug-treated samples. The concentration-response curve is fitted to estimate the drug concentration corresponding to half the grayscale value.
(§6) Target protein remaining (%) refers to the percentage of target protein remaining in hPBMC cells after treatment with protein degrader compounds.
(§7) Calculation method for target protein remaining (%): Use ImageJ software to measure grayscale values of Western blot bands from drug (protein degrader)-treated samples. The grayscale value of drug-treated bands is divided by that of internal control protein bands, and the resulting quotient is normalized to obtain the relative percentage of remaining target protein after protein degrader treatment.
(§8) Target protein degradation rate (%) = 100% - target protein remaining (%).
In general terms: Immunoblotting shows a protein as a band on a membrane.

The target in test [2] is T2, CDK6 (Homo sapiens, UniProt Q00534).
T2 construct: evaluate the effects of the compounds of the present disclosure on the expression of target proteins in cells; endogenous in cells; host or cells: MDA-MB-231
The test can be described thus: Western blot degradation of CDK6 (MDA-MB-231 Cell). Type of test: cell-based. Particulars: Table D3. How it is done:
as §1, §2, §3, §4, §5, §6, §7, §8

Molecules are shown by their SMILES.

T1 sequence (P11802 whole entry): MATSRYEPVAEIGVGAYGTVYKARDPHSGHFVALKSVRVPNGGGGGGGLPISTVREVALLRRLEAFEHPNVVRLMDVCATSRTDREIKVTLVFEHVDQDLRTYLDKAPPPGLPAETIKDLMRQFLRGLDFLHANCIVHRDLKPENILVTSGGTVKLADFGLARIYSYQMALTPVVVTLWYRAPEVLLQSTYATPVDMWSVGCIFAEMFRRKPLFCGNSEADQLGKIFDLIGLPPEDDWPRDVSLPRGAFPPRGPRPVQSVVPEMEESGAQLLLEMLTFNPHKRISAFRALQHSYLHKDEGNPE
T2 sequence (Q00534 whole entry): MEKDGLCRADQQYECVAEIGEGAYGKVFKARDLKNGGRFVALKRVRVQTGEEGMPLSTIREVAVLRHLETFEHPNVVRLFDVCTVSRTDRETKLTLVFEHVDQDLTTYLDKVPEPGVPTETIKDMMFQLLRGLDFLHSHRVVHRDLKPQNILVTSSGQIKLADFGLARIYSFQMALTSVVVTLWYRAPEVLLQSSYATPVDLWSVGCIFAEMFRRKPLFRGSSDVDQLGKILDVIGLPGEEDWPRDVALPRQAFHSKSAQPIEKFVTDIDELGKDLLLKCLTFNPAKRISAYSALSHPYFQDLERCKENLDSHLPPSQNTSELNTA

`CN(C)C(=O)c1cc2cnc(Nc3ccc(N4CCN(Cc5ccc(C6CCC(=O)NC6=O)cc5)CC4)cn3)nc2n1C1CCCC1` (stereo not shown) [GT-06339, 7-cyclopentyl-2-((5-(4-(4-(2,6-dioxopiperidin-3-yl)benzyl)piperazin-1-yl)pyridin-2-yl)amino)-N,N-dimethyl-7H-pyrrolo[2,3-d]pyrimidine-6-carboxamide]: the “Degradation of substrate protein CDK4 (substrate protein remaining %)” value in test [1] is on record as “A (A is defined as 0% ≤ substrate protein remaining % ≤ 80%)”. Moreover, the “Degradation of substrate protein CDK6 (substrate protein remaining %)” value in test [2] was “A (A is defined as 0% ≤ substrate protein remaining % ≤ 80%)”.
Consider `CN(C)C(=O)c1cc2cnc(Nc3ccc(N4CCN(Cc5ccc(N6CCC(=O)NC6=O)cc5)CC4)cn3)nc2n1C1CCCC1` [GT-06340, 7-cyclopentyl-2-((5-(4-(4-(2,4-dioxotetrahydropyrimidin-1(2H)-yl)benzyl)piperazin-1-yl)pyridin-2-yl)amino)-N,N-dimethyl-7H-pyrrolo[2,3-d]pyrimidine-6-carboxamide], for which, in test [1], the “Degradation of substrate protein CDK4 (substrate protein remaining %)” value is listed as “A (A is defined as 0% ≤ substrate protein remaining % ≤ 80%)”. The “Degradation of substrate protein CDK6 (substrate protein remaining %)” value in test [2] is reported as “A (A is defined as 0% ≤ substrate protein remaining % ≤ 80%)”.
Take `CN(C)C(=O)c1cc2cnc(Nc3ccc(N4CCN(Cc5cccc(N6CCC(=O)NC6=O)c5)CC4)cn3)nc2n1C1CCCC1` [GT-06341, 7-cyclopentyl-2-((5-(4-(3-(2,4-dioxotetrahydropyrimidin-1(2H)-yl)benzyl)piperazin-1-yl)pyridin-2-yl)amino)-N,N-dimethyl-7H-pyrrolo[2,3-d]pyrimidine-6-carboxamide]: the “Degradation of substrate protein CDK4 (substrate protein remaining %)” value in test [1] was “A (A is defined as 0% ≤ substrate protein remaining % ≤ 80%)”. In addition, in test [2], the “Degradation of substrate protein CDK6 (substrate protein remaining %)” value was “A (A is defined as 0% ≤ substrate protein remaining % ≤ 80%)”.
For `CN(C)C(=O)c1cc2cnc(Nc3ccc(N4CCN(Cc5ccc(N6CCC(=O)NC6=O)cn5)CC4)cn3)nc2n1C1CCCC1` [GT-06342, 7-cyclopentyl-2-((5-(4-((5-(2,4-dioxotetrahydropyrimidin-1(2H)-yl)pyridin-2-yl)methyl)piperazin-1-yl)pyridin-2-yl)amino)-N,N-dimethyl-7H-pyrrolo[2,3-d]pyrimidine-6-carboxamide], in test [1], the “Degradation of substrate protein CDK4 (substrate protein remaining %)” value was “A (A is defined as 0% ≤ substrate protein remaining % ≤ 80%)”. Besides, the “Degradation of substrate protein CDK6 (substrate protein remaining %)” value in test [2] was “A (A is defined as 0% ≤ substrate protein remaining % ≤ 80%)”.
Take `CN(C)C(=O)c1cc2cnc(Nc3ccc(N4CCN(Cc5ccc(N6CCC(=O)NC6=O)nc5)CC4)cn3)nc2n1C1CCCC1` [GT-06343, 7-cyclopentyl-2-((5-(4-((6-(2,4-dioxotetrahydropyrimidin-1(2H)-yl)pyridin-3-yl)methyl)piperazin-1-yl)pyridin-2-yl)amino)-N,N-dimethyl-7H-pyrrolo[2,3-d]pyrimidine-6-carboxamide]: the “Degradation of substrate protein CDK4 (substrate protein remaining %)” value in test [1] was “A (A is defined as 0% ≤ substrate protein remaining % ≤ 80%)”. Further, in test [2], the “Degradation of substrate protein CDK6 (substrate protein remaining %)” value is recorded as “A (A is defined as 0% ≤ substrate protein remaining % ≤ 80%)”.
As to `CN(C)C(=O)c1cc2cnc(Nc3ccc(N4CCN(Cc5cccc(NC6CCC(=O)NC6=O)c5)CC4)cn3)nc2n1C1CCCC1` (stereo not shown) [GT-06344, 7-cyclopentyl-2-((5-(4-(3-((2,6-dioxopiperidin-3-yl)amino)benzyl)piperazin-1-yl)pyridin-2-yl)amino)-N,N-dimethyl-7H-pyrrolo[2,3-d]pyrimidine-6-carboxamide], in test [1], the “Degradation of substrate protein CDK4 (substrate protein remaining %)” value is recorded as “B (B is defined as substrate protein remaining % > 80%)”. In addition, in test [2], the “Degradation of substrate protein CDK6 (substrate protein remaining %)” value is “A (A is defined as 0% ≤ substrate protein remaining % ≤ 80%)”.
For `CN(C)C(=O)c1cc2cnc(Nc3ccc(N4CCC(N(C)Cc5ccc(C6CCC(=O)NC6=O)cc5)CC4)cn3)nc2n1C1CCCC1` (stereo not shown) [GT-06490, 7-cyclopentyl-2-((5-(4-((4-(2,6-dioxopiperidin-3-yl)benzyl)(methyl)amino)piperidin-1-yl)pyridin-2-yl)amino)-N,N-dimethyl-7H-pyrrolo[2,3-d]pyrimidine-6-carboxamide] the same measures were “A (A is defined as 0% ≤ substrate protein remaining % ≤ 80%)” and “B (B is defined as substrate protein remaining % > 80%)”.
In the same order, the values of `CN(C)C(=O)c1cc2cnc(Nc3ccc(N4CCC(N(C)Cc5ccc(N6CCC(=O)NC6=O)cc5)CC4)cn3)nc2n1C1CCCC1` [GT-06491, 7-cyclopentyl-2-((5-(4-((4-(2,4-dioxotetrahydropyrimidin-1(2H)-yl)benzyl)(methyl)amino)piperidin-1-yl)pyridin-2-yl)amino)-N,N-dimethyl-7H-pyrrolo[2,3-d]pyrimidine-6-carboxamide] are “B (B is defined as substrate protein remaining % > 80%)” and “A (A is defined as 0% ≤ substrate protein remaining % ≤ 80%)”.
In the case of `CN(C)C(=O)c1cc2cnc(Nc3ccc(N4CCC(N(C)Cc5cccc(N6CCC(=O)NC6=O)c5)CC4)cn3)nc2n1C1CCCC1` [GT-06492, 7-cyclopentyl-2-((5-(4-((3-(2,4-dioxotetrahydropyrimidin-1(2H)-yl)benzyl)(methyl)amino)piperidin-1-yl)pyridin-2-yl)amino)-N,N-dimethyl-7H-pyrrolo[2,3-d]pyrimidine-6-carboxamide], the “Degradation of substrate protein CDK4 (substrate protein remaining %)” value in test [1] is listed as “B (B is defined as substrate protein remaining % > 80%)”. The “Degradation of substrate protein CDK6 (substrate protein remaining %)” value in test [2] is “A (A is defined as 0% ≤ substrate protein remaining % ≤ 80%)”.
For `CN(C)C(=O)c1cc2cnc(Nc3ccc(N4CCC(N(C)Cc5ccc(N6CCC(=O)NC6=O)cn5)CC4)cn3)nc2n1C1CCCC1` [GT-06493, 7-cyclopentyl-2-((5-(4-(((5-(2,4-dioxotetrahydropyrimidin-1(2H)-yl)pyridin-2-yl)methyl)(methyl)amino)piperidin-1-yl)pyridin-2-yl)amino)-N,N-dimethyl-7H-pyrrolo[2,3-d]pyrimidine-6-carboxamide] the same measures were “A (A is defined as 0% ≤ substrate protein remaining % ≤ 80%)” and “B (B is defined as substrate protein remaining % > 80%)”.
For `CN(C)C(=O)c1cc2cnc(Nc3ccc(N4CCC(N(C)Cc5cccc(NC6CCC(=O)NC6=O)c5)CC4)cn3)nc2n1C1CCCC1` (stereo not shown) [GT-06495, 7-cyclopentyl-2-((5-(4-((3-((2,6-dioxopiperidin-3-yl)amino)benzyl)(methyl)amino)piperidin-1-yl)pyridin-2-yl)amino)-N,N-dimethyl-7H-pyrrolo[2,3-d]pyrimidine-6-carboxamide] the same measures were “A (A is defined as 0% ≤ substrate protein remaining % ≤ 80%)” and “A (A is defined as 0% ≤ substrate protein remaining % ≤ 80%)”.
For `CC(=O)c1c(C)c2cnc(Nc3ccc(N4CCN(Cc5ccc(N6CCC(=O)NC6=O)cc5)CC4)cn3)nc2n(C2CCCC2)c1=O` [GT-06576, 1-(4-((4-(6-((6-acetyl-8-cyclopentyl-5-methyl-7-oxo-7,8-dihydropyrido[2,3-d]pyrimidin-2-yl)amino)pyridin-3-yl)piperazin-1-yl)methyl)phenyl)dihydropyr imidine-2,4(1H,3H)-dione] the same measures were “A (A is defined as 0% ≤ substrate protein remaining % ≤ 80%)” and “A (A is defined as 0% ≤ substrate protein remaining % ≤ 80%)”.
As to `CC(=O)c1c(C)c2cnc(Nc3ccc(N4CCN(Cc5ccc(N6CCC(=O)NC6=O)nc5)CC4)cn3)nc2n(C2CCCC2)c1=O` [GT-06579, 1-(5-((4-(6-((6-acetyl-8-cyclopentyl-5-methyl-7-oxo-7,8-dihydropyrido[2,3-d]pyrimidin-2-yl)amino)pyridin-3-yl)piperazin-1-yl)methyl)pyridin-2-yl)dihydropyrimidine-2,4(1H,3H)-dione], the “Degradation of substrate protein CDK4 (substrate protein remaining %)” value in test [1] is on record as “B (B is defined as substrate protein remaining % > 80%)”. Moreover, in test [2], the “Degradation of substrate protein CDK6 (substrate protein remaining %)” value is on record as “A (A is defined as 0% ≤ substrate protein remaining % ≤ 80%)”.
For `CN(C)C(=O)c1cc2cnc(Nc3ccc(N4CCN(Cc5cc(N6CCC(=O)NC6=O)ncc5F)CC4)cn3)nc2n1C1CCCC1` [GT-07474, 7-cyclopentyl-2-((5-(4-((2-(2,4-dioxotetrahydropyrimidin-1(2H)-yl)-5-fluoropyridin-4-yl)methyl)piperazin-1-yl)pyridin-2-yl)amino)-N,N-dimethyl-7H-pyrrolo[2,3-d]pyrimidine-6-carboxamide] the same measures were “A (A is defined as 0% ≤ substrate protein remaining % ≤ 80%)” and “A (A is defined as 0% ≤ substrate protein remaining % ≤ 80%)”.

(Values after patent publication EP4678638A1, “NEW E3 UBIQUITIN LIGASE LIGAND, PROTEIN DEGRADATION AGENT AND USE THEREOF” (priority 2023, dated 2024).)
